Measured values reported in article PMC10730852 (Communications Biology, 2023).

Key:
Cph001 = target: T1, Cph001 (Streptosporangium roseum, UniProt D2B3F1); experiment: Isothermal titration calorimetry (ITC) analysis of Cph001; type: binding
T1 sequence (D2B3F1 1-286): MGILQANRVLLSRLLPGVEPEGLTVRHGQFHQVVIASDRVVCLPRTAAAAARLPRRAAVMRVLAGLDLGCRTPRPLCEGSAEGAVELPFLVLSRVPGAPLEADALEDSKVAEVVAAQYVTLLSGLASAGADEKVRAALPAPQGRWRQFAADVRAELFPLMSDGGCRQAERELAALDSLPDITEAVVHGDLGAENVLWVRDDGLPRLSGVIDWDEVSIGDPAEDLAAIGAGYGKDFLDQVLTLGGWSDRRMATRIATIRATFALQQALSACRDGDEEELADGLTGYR
From the text: The integrated heat areas constitute a differential binding curve that was fitted with a standard single-site binding model by Origin 7.

Cph001^D189N = experiment: Coupled enzyme assay of Cph001 variant; type: biochemical, Streptosporangium roseum; details: for absorbance at 340 nm, Average of triplicate: 2 mM substrate + ATP
Protocol: (§1) The phosphorylation reaction was measured by a coupled enzyme assay as following. The reaction 1, performed by 0.77 μM Cph001 with 2 mM antibiotic substrates (CMN IIA, CMN IIB, VIO, Kan, or Ery), was coupled to the reaction 2 and 3 in the presence of 4 U PK (pyruvate kinase from rabbit muscle, Merck), 4 U LDH (lactate dehydrogenase from rabbit muscle, Merck), 2 mM ATP or GTP, 2 mM PEP (phosphoenolpyruvate), 0.5 mM NADH, 40 mM KCl and 5 mM MgCl2 in a reaction buffer containing 400 mM NaCl and 20 mM Tris buffer at pH 8.0. The reactions were mixed well in a final volume of 200 μL in 96-well plates. The Cph001 activity was assayed by determining the oxidation of NADH at 340 nm. The reaction buffer and enzyme concentration of the Cph reaction was followed by previous study. The 340 nm absorbance changes were detected at 30 °C for every 1 min at a time in 15 min on an EPOCH Microplate Reader (BioTek). All reactions were carried out in triplicate.

Cph001^D189A = experiment: Coupled enzyme assay of Cph001 variant; type: biochemical, Streptosporangium roseum; details: for absorbance at 340 nm, Average of triplicate: 2 mM substrate + ATP
Protocol: as §1

Cph = test system: Cph; design: method as in Previous kinetic studies; details: ATP as a phosphate donor; ref Previous kinetic studies; read-out: Km value of Cph for CMN IIA; cited from earlier work

SMILES: N=C1NCCC([C@@H]2NC(=O)/C(=C/NC(N)=O)NC(=O)[C@H](CNC(=O)C[C@@H](N)CCCN)NC(=O)[C@H](CO)NC(=O)[C@@H](N)CNC2=O)N1 (stereo in doubt) [CMN IIA]
- Kd (Cph001): 1240 ± 80 nM
- phosphotransferase activity of variant (Cph001^D189N; CMN IIA + ATP): complete loss of phosphotransferase activity
- absorbance at 340 nm, Average of triplicate (Cph001^D189N; time 00:00:00): 1.495
- absorbance at 340 nm, Average of triplicate (Cph001^D189N; time 00:01:00): 1.553
- absorbance at 340 nm, Average of triplicate (Cph001^D189N; time 00:02:00): 1.591
- absorbance at 340 nm, Average of triplicate (Cph001^D189N; time 00:03:00): 1.622
- absorbance at 340 nm, Average of triplicate (Cph001^D189N; time 00:04:00): 1.655
- absorbance at 340 nm, Average of triplicate (Cph001^D189N; time 00:05:00): 1.685
- absorbance at 340 nm, Average of triplicate (Cph001^D189N; time 00:06:00): 1.709
- absorbance at 340 nm, Average of triplicate (Cph001^D189N; time 00:07:00): 1.733
- absorbance at 340 nm, Average of triplicate (Cph001^D189N; time 00:08:00): 1.755
- absorbance at 340 nm, Average of triplicate (Cph001^D189N; time 00:09:00): 1.775
- absorbance at 340 nm, Average of triplicate (Cph001^D189N; time 00:10:00): 1.791
- absorbance at 340 nm, Average of triplicate (Cph001^D189N; time 00:11:00): 1.804
- absorbance at 340 nm, Average of triplicate (Cph001^D189N; time 00:12:00): 1.814
- absorbance at 340 nm, Average of triplicate (Cph001^D189N; time 00:13:00): 1.823
- absorbance at 340 nm, Average of triplicate (Cph001^D189N; time 00:14:00): 1.83
- absorbance at 340 nm, Average of triplicate (Cph001^D189N; time 00:15:00): 1.791
- phosphotransferase activity of variant (Cph001^D189A; CMN IIA + ATP): complete loss of phosphotransferase activity
- absorbance at 340 nm, Average of triplicate (Cph001^D189A; time 00:00:00): 1.495
- absorbance at 340 nm, Average of triplicate (Cph001^D189A; time 00:01:00): 1.482
- absorbance at 340 nm, Average of triplicate (Cph001^D189A; time 00:02:00): 1.504
- absorbance at 340 nm, Average of triplicate (Cph001^D189A; time 00:03:00): 1.549
- absorbance at 340 nm, Average of triplicate (Cph001^D189A; time 00:04:00): 1.574
- absorbance at 340 nm, Average of triplicate (Cph001^D189A; time 00:05:00): 1.588
- absorbance at 340 nm, Average of triplicate (Cph001^D189A; time 00:06:00): 1.596
- absorbance at 340 nm, Average of triplicate (Cph001^D189A; time 00:07:00): 1.602
- absorbance at 340 nm, Average of triplicate (Cph001^D189A; time 00:08:00): 1.612
- absorbance at 340 nm, Average of triplicate (Cph001^D189A; time 00:09:00): 1.625
- absorbance at 340 nm, Average of triplicate (Cph001^D189A; time 00:10:00): 1.641
- absorbance at 340 nm, Average of triplicate (Cph001^D189A; time 00:11:00): 1.654
- absorbance at 340 nm, Average of triplicate (Cph001^D189A; time 00:12:00): 1.662
- absorbance at 340 nm, Average of triplicate (Cph001^D189A; time 00:13:00): 1.67
- absorbance at 340 nm, Average of triplicate (Cph001^D189A; time 00:14:00): 1.682
- absorbance at 340 nm, Average of triplicate (Cph001^D189A; time 00:15:00): 1.69
- Km (Cph): 460 µM
